This passage reports target mRNA inhibition results from the OligoGym collection.

After the bases stand the sugars from the 5' end (letter, count) and the backbone: PS all phosphorothioate, else s phosphorothioate and o phosphodiester by linkage. Methylation of C is not given here. e = 2'-O-(2-methoxyethyl) (MOE); k = constrained ethyl (cEt); d = 2'-deoxy (DNA); m = 2'-O-methyl

In this data set the target is HSD17B13. The conditions noted are these: ASO, HepaRG.

The sequence “TTAGUATAGTTATCTT (sugars k3 d1 m1 d8 k3, PS)” displayed a target mRNA inhibition (1 µM) of 22%. For the sequence GTATCTTATAAGACTA (sugars k3 d10 k3, PS), the target mRNA inhibition reads like this: (0.02 µM) 50%; (0.078 µM) 61%; (0.313 µM) 68%; (1 µM) 81%; (1.25 µM) 87%; (5 µM) 95%. TAGAACACTTGCCTCA (sugars k3 d10 k3, PS) showed a target mRNA inhibition (1 µM) of 31%.

Consider TGGAAGATTAATCATA (sugars k3 d10 k3, PS), for which the target mRNA inhibition (1 µM) turned out to be 12%. Same read-out and setting: the value for CAACCAAACTTCCAGC (sugars k3 d10 k3, PS) was 72%; that for CTCCGTTATAAGTTTC (sugars k3 d10 k3, PS) was 59%. Still for that read-out and setting: for TGTCAGACCTCTGTGA (sugars k3 d10 k3, PS) the value was 0%; for “TAAGATACCCAGGTTG (sugars k3 d9 k3 e1, PS)”, 58%.

CTATATACATCCAAGT (sugars k3 d10 k3, PS): where the note is “1 µM”, the target mRNA inhibition was 6%. On to ATTGAGATGACAGTGG (sugars k3 d10 k3, PS), for which the target mRNA inhibition came out at 21% (0.02 µM); 40% (0.078 µM); 64% (0.313 µM); 70% (1 µM); 77% (1.25 µM); 91% (5 µM). For TTAAAATAGAGTCGGT (sugars k3 d10 k3, PS), the target mRNA inhibition (1 µM) turned out to be 65%. For GGGCTAATGAAAAAGG (sugars k3 d10 k3, PS), the target mRNA inhibition (1 µM) came to 14%. In turn, ATTATTCACCACGATT (sugars k3 d10 k3, PS) gave a target mRNA inhibition (1 µM) of 29%. Same read-out and setting: the value for “TGTGTTCTTGTTGATA (sugars kkdddddddddkekek, PS)” was 64%.

Regarding TCCGAAAAAAGTGGAG (sugars k3 d10 k3, PS), under “1 µM”, the target mRNA inhibition is 12%. Still for that read-out and setting: the value for TTCTAAATTACTCCGT (sugars k3 d10 k3, PS) was 53%.

For the setting “1 µM”, ATCCATTCTATGCAAG (sugars k3 d10 k3, PS) registered a target mRNA inhibition of 46%. As for “GCATGGCTACAGATTG (sugars kkdddddddddkekek, PS)”, where the note is “1 µM”, the target mRNA inhibition came out at 41%. GAGCATAAGTTACCAG (sugars k3 d10 k3, PS): the target mRNA inhibition (1 µM) turned out to be 61%. On the same count and under the same terms, the value for TTTCCTCCACACCGCG (sugars k3 d10 k3, PS) was 18%; that for TTTATAGACTGGGTAG (sugars k3 d10 k3, PS) was 59%. AAATTATACTTTTCCG (sugars k3 d10 k3, PS) showed a target mRNA inhibition (0.02 µM) of 0%; a target mRNA inhibition (0.078 µM) of 38%; a target mRNA inhibition (0.313 µM) of 66%; a target mRNA inhibition (1 µM) of 85%; a target mRNA inhibition (1.25 µM) of 88%; a target mRNA inhibition (5 µM) of 92%. “AGACTTTGAGACTCTT (sugars k3 d9 k3 e1, PS)” came in with a target mRNA inhibition (1 µM) of 41%. CTCTAAAGCAGGCTAC (sugars k3 d10 k3, PS) displayed a target mRNA inhibition (1 µM) of 51%.

Regarding TCTACACTAATATTGA (sugars k3 d10 k3, PS), where the note is “1 µM”, the target mRNA inhibition worked out at 21%. Still for that read-out and setting: the value for “ATCCUATATACATCCA (sugars k3 d1 m1 d8 k3, PS)” was 64%; that for CCCTTAACAAACCTCC (sugars k3 d10 k3, PS) was 43%; that for CTAGGATGATGTTCAT (sugars k3 d10 k3, PS) was 47%. On the same count and under the same terms, the value for “TAAACATCTCTGGGAC (sugars k3 d1 m1 d8 k3, PS)” was 49%. On to AGTGCTTAGTTCATTG (sugars k3 d10 k3, PS), for which the target mRNA inhibition runs as follows: (0.02 µM) 0%; (0.078 µM) 0%; (0.313 µM) 31%; (1 µM) 84%; (1.25 µM) 58%; (5 µM) 84%.

Under “1 µM”, AGACAATGACATAGAC (sugars k3 d10 k3, PS) yielded a target mRNA inhibition of 14%.

For the sequence AATTTTCGGGTTCTTA (sugars k3 d10 k3, PS), the target mRNA inhibition (1 µM) was 35%.

Turning to TCCTCCACACCGCGCT (sugars k3 d10 k3, PS), the target mRNA inhibition (1 µM) came to 20%. Still for that read-out and setting: the value for “ACTTGAACAGTCTTAA (sugars kkdddddddddkekek, PS)” was 60%. Regarding AAGATAAGTAGATGGT (sugars k3 d10 k3, PS), the target mRNA inhibition amounted to 7% (0.02 µM); 26% (0.078 µM); 58% (0.313 µM); 79% (1 µM); 77% (1.25 µM); 89% (5 µM).

Under “1 µM”, CTTACATGATTAAGCA (sugars k3 d10 k3, PS) yielded a target mRNA inhibition of 44%. For ATGTAAAGTTTGTTAG (sugars k3 d10 k3, PS), the target mRNA inhibition (1 µM) was 12%. The sequence “TAAACCTTCCCTGTGT (sugars k3 d9 k3 e1, PS)” came in with a target mRNA inhibition (1 µM) of 23%.

For the sequence “ATGTTTATGTAAGCAC (sugars kkdddddddddkekek, PS)”, the target mRNA inhibition (1 µM) was 61%. On the same count and under the same terms, for TACATATCTTACTCTG (sugars k3 d10 k3, PS) the value was 40%; for TCCCACAGAACCAATA (sugars k3 d10 k3, PS), 24%; for CGCATGCGCAGTGACG (sugars k3 d10 k3, PS), 46%. On the same count and under the same terms, for ATTCACATATGTGAAG (sugars k3 d10 k3, PS) the value was 0%.

For the sequence ATAAGAGCCAAACTGC (sugars k3 d10 k3, PS), the target mRNA inhibition (1 µM) turned out to be 49%. The same measure, in the same setting: the value for TGACATAGACATGTGT (sugars k3 d10 k3, PS) was 42%; that for TTGGGTCCATTGTTTC (sugars k3 d10 k3, PS) was 44%. Regarding TGCAAGTTTATCAGTA (sugars k3 d10 k3, PS), the target mRNA inhibition is, setting by setting: (0.02 µM) 28%; (0.078 µM) 32%; (0.313 µM) 62%; (1 µM) 70%; (1.25 µM) 86%; (5 µM) 92%. Consider “TGGCATGGCTACAGAT (sugars k3 d9 k3 e1, PS)”, for which the target mRNA inhibition by setting is: (0.02 µM) 26%; (0.078 µM) 22%; (0.313 µM) 39%; (1 µM) 68%; (1.25 µM) 75%; (5 µM) 70%. On to “GTCGGTCACCTTTCAT (sugars k3 d9 k3 e1, PS)”, for which the target mRNA inhibition (1 µM) worked out at 68%. In turn, AAAAGGCCCAAGGCTT (sugars k3 d10 k3, PS) showed a target mRNA inhibition (1 µM) of 30%. For the setting “1 µM”, “CTCTGGGACCAAGGAT (sugars k3 d9 k3 e1, PS)” yielded a target mRNA inhibition of 62%.

Sequence “AATCCCAACCAAACTT (sugars k3 d9 k3 e1, PS)” registered a target mRNA inhibition (1 µM) of 13%. CTAGGGAGGAGGTACT (sugars k3 d10 k3, PS) yielded a target mRNA inhibition (1 µM) of 29%.

In turn, “AGAGGCTAGGGAAATC (sugars k3 d9 k3 e1, PS)” came in with a target mRNA inhibition (1 µM) of 68%. The same measure, in the same setting: for CTTTTAGTCAGGTAGA (sugars k3 d10 k3, PS) the value was 33%; for “GTTGCACCGTTTTGGG (sugars k3 d9 k3 e1, PS)”, 45%.

Sequence GACTTTTGTTTGTAGC (sugars k3 d10 k3, PS) registered a target mRNA inhibition (1 µM) of 74%. Still for that read-out and setting: for “GAGTTGCACCGTTTTG (sugars kkdddddddddkekek, PS)” the value was 61%; for “CATAUGTGAAGAGCTG (sugars k3 d1 m1 d8 k3, PS)”, 39%; for CAAGTGACAGCATTGA (sugars k3 d10 k3, PS), 48%. On the same count and under the same terms, the value for CTGCTACTCTAGGAGA (sugars k3 d10 k3, PS) was 66%. On the same count and under the same terms, for CAAAAGACTTTGAGAC (sugars k3 d10 k3, PS) the value was 22%; for GCCACTGGATGGATTT (sugars k3 d10 k3, PS), 36%. TCCATAATAATAGCTC (sugars k3 d10 k3, PS): the target mRNA inhibition (1 µM) is 69%. Same read-out and setting: the value for ATGTAGTGGGAGTCGG (sugars k3 d10 k3, PS) was 72%; that for TTTAAGAGGCATGAAA (sugars k3 d10 k3, PS) was 40%.

The sequence CTTGGGTCCATTGTTT (sugars k3 d10 k3, PS) returned a target mRNA inhibition (1 µM) of 44%.

With “TCGGTCACCTTTCATA (sugars k3 d9 k3 e1, PS)”, for the setting “1 µM”, the target mRNA inhibition was determined as 72%. Take GTTTTTCTCTTGACAA (sugars k3 d10 k3, PS): where the note is “1 µM”, the target mRNA inhibition came out at 59%. Still for that read-out and setting: for “GTTTTGGGCTAATGAA (sugars k3 d9 k3 e1, PS)” the value was 47%; for ATCTTATAAGACTATA (sugars k3 d10 k3, PS), 32%; for CATTGATTCGAAACTA (sugars k3 d10 k3, PS), 40%. As for “CAAAAGACTTTGAGAC (sugars kkdddddddddkekek, PS)”, for the setting “1 µM”, the target mRNA inhibition was found to be 32%. ACCAATCCTCAGCTTT (sugars k3 d10 k3, PS) registered a target mRNA inhibition (1 µM) of 11%.

In the case of “TTAAACCTTCCCTGTG (sugars k3 d1 m1 d8 k3, PS)”, the target mRNA inhibition (1 µM) stood at 23%.

“CTAGGGAAATCTTTCA (sugars kkdddddddddkekek, PS)” registered a target mRNA inhibition (1 µM) of 46%. On the same count and under the same terms, the value for “AATATGGGATGAGGTA (sugars kkdddddddddkekek, PS)” was 52%; that for TTACGACTTCATCTGT (sugars k3 d10 k3, PS) was 36%. Still for that read-out and setting: the value for GATATTGTTTAGCTGA (sugars k3 d10 k3, PS) was 59%; that for GTTTTGATACCAGTTT (sugars k3 d10 k3, PS) was 67%.

Sequence TGTATCTTATAAGACT (sugars k3 d10 k3, PS) gave a target mRNA inhibition (1 µM) of 45%.
